Target: T1, human TLR7 (Homo sapiens, UniProt Q9NYK1)
T1 construct: host or cells: HEK-Blue TLR7 293 (TLR7-HEK-293)
T1 sequence (Q9NYK1 27-1049): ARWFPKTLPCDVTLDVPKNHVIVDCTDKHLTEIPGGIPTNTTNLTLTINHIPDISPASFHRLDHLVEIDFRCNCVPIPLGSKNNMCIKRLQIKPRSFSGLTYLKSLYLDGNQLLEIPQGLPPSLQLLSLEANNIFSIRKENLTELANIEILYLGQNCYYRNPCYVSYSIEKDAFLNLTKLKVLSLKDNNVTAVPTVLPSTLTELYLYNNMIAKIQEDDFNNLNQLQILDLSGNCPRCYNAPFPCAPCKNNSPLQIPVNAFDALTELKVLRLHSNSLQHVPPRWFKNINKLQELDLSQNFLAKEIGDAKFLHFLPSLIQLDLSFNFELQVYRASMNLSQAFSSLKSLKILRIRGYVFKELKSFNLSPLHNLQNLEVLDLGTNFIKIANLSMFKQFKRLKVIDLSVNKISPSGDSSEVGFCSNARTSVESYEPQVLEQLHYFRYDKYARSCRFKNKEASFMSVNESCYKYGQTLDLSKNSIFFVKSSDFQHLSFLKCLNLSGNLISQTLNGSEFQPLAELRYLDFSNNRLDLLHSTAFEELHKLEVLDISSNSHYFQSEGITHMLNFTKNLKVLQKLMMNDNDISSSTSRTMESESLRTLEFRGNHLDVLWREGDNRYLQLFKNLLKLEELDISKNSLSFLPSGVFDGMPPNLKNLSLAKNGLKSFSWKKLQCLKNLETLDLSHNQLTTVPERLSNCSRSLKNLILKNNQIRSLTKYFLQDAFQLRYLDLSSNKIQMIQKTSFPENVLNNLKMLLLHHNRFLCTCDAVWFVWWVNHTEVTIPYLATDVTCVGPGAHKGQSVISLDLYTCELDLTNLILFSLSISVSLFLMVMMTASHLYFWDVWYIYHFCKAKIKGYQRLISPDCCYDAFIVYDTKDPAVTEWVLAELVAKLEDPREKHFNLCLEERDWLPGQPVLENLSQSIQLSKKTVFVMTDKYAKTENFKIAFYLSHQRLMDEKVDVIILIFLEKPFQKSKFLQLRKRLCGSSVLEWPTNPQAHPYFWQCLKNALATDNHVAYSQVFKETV
Assay: NF-κB reporter assay (QUANTI-Blue) in TLR7-HEK-293 cells
Assay type: cell-based
Conditions: Dotap formulations of miRNA
Description: To investigate whether miRNA-induced activation of TLRs also occurs in human cells, an NF-κB reporter assay was performed in HEK-293 cells. NF-κB, a transcription factor modulating the expression of several cytokine genes, is activated by several TLRs, including the only ssRNA-binding human TLRs, TLR7 and TLR8. Therefore, we treated HEK-293 cells expressing human TLR7 or TLR8 (hereafter, TLR7- and TLR8-HEK-293 cells, respectively) with Dotap alone or with Dotap formulations of miR-16, -21, -29a, or -147 and performed an NF-κB reporter assay. As positive controls Gardiquimod and ssRNA40 were used, specific agonists of TLR7 and TLR8, respectively. […] To confirm this conclusion, transfected were TLR8-HEK-293 cells with a plasmid encoding a dominant negative form of TLR8 (TLR8DN) and treated these cells with the miRNAs of interest. In TLR8DN cells, the activation of NF-κB by miR-21 and miR-29a was abolished (FIG. 3F). […] NF-κB activity was assessed by QUANTI-Blue Assay (Invivogen). […] Levels of SEAP can be easily determined with QUANTI-Blue, a detection medium that turns purple/blue in the presence of alkaline phosphatase. […] The plate was then incubated at 37° C. for 1-3 h and SEAP levels were determined by reading the plate with a spectrophotometer at 620-655 nm (SpectraMax, Molecular Devices).

Substance: miR-147: synthetic mature miRNA (SEQ ID NO: 3), sequence similar to RNA33, Dotap formulation (GUGUGUGGAAAUGCUUCUGC; DOTAP formulation, further chemistry not given here)
- NF-κB activation: only in TLR8-HEK-293 cells
